Measurements as given in PubChem BioAssay AID248 (DTP/NCI, 2004).
Inconclusive results and toxic doses are left out. No stated cut-off is given here; in the data, active means T/C of 150% or more; inactive means T/C below 125%.

Tested on: L1210 leukemia ip in BDF1 mice, survival T/C
Assay: NCI In Vivo Anticancer Drug Screen. Data for tumor model L1210 Leukemia (intraperitoneal) in B6D2F1 (BDF1) mice
Conditions: endpoint: mean survival time, higher = longer survival
Procedure, shortened: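 Transplantable tumor model; survival measured in treated vs vehicle control mice. Value = treated/control.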

[1] = dose: 75.0 mg/kg/injection, schedule: Q01DX001 (ip), vehicle: saline
[2] = dose: 50.0 mg/kg/injection, schedule: Q01DX009 (ip), vehicle: saline with Tween-80
[3] = dose: 100.0 mg/kg/injection, schedule: Q01DX009 (ip), vehicle: saline
[4] = dose: 200.0 mg/kg/injection, schedule: Q01DX009 (ip), vehicle: saline
[5] = dose: 100.0 mg/kg/injection, schedule: Q04DX003 (ip), vehicle: Klucel (hydroxypropylcellulose) (HPC)
[6] = dose: 200.0 mg/kg/injection, schedule: Q04DX003 (ip), vehicle: Klucel (hydroxypropylcellulose) (HPC)
[7] = dose: 100.0 mg/kg/injection, schedule: Q01DX001 (ip), vehicle: saline
[8] = dose: 200.0 mg/kg/injection, schedule: Q01DX001 (ip), vehicle: saline
[9] = dose: 400.0 mg/kg/injection, schedule: Q01DX001 (ip), vehicle: saline
[10] = dose: 400.0 mg/kg/injection, schedule: Q04DX003 (ip), vehicle: Klucel (hydroxypropylcellulose) (HPC)
[11] = dose: 100.0 mg/kg/injection, schedule: Q04DX003 (ip), vehicle: saline
[12] = dose: 200.0 mg/kg/injection, schedule: Q04DX003 (ip), vehicle: saline
[13] = dose: 400.0 mg/kg/injection, schedule: Q04DX003 (ip), vehicle: saline
[14] = dose: 100.0 mg/kg/injection, schedule: Q01DX009 (ip), vehicle: Klucel (hydroxypropylcellulose) (HPC)
[15] = dose: 200.0 mg/kg/injection, schedule: Q01DX009 (ip), vehicle: Klucel (hydroxypropylcellulose) (HPC)

Measured: T/C

O=C(O)NC1(c2ccccc2)OC1c1ccccc1 (stereo not given)
inactive: dose: 50.0 mg/kg/injection, schedule: Q01DX001 (ip), vehicle: saline with Tween-80 115 % of control | dose: 100.0 mg/kg/injection, schedule: Q01DX001 (ip), vehicle: saline with Tween-80 98 % of control | dose: 200.0 mg/kg/injection, schedule: Q01DX001 (ip), vehicle: saline with Tween-80 94 % of control

NC(=O)CN1C(=O)C2C3CCC(C3)C2C1=O (stereo not given)
inactive: dose: 100.0 mg/kg/injection, schedule: Q04DX003 (ip), vehicle: saline with Tween-80 107 % of control | dose: 200.0 mg/kg/injection, schedule: Q04DX003 (ip), vehicle: saline with Tween-80 107 % of control | dose: 400.0 mg/kg/injection, schedule: Q04DX003 (ip), vehicle: saline with Tween-80 107 % of control

CC12CCC(C1)C(C)(C)C2[N+]#N (stereo not given)
inactive: [1] 105 % of control

c1ccc(CC23CCCCC2N3)cc1 (stereo not given)
inactive: [2] 95 % of control

CCn1c(=O)cn[nH]c1=O
inactive: dose: 50.0 mg/kg/injection, schedule: Q01DX009 (ip), vehicle: saline 97 % of control | [3] 97 % of control | [4] 94 % of control

O=C1OC(c2ccccc2)CC1N1CCCCC1 (stereo not given)
inactive: dose: 100.0 mg/kg/injection, schedule: Q01DX001 (ip), vehicle: saline sonified 109 % of control | dose: 200.0 mg/kg/injection, schedule: Q01DX001 (ip), vehicle: saline sonified 105 % of control

CCOP1(=S)OCCO1
inactive: [5] 100 % of control | [6] 103 % of control

O=S(=O)(O)c1cc(I)c(O)c2ncccc12
inactive: dose: 100.0 mg/kg/injection, schedule: Q04DX002 (ip), vehicle: Klucel (hydroxypropylcellulose) (HPC) 102 % of control | dose: 200.0 mg/kg/injection, schedule: Q04DX002 (ip), vehicle: Klucel (hydroxypropylcellulose) (HPC) 95 % of control | dose: 400.0 mg/kg/injection, schedule: Q04DX002 (ip), vehicle: Klucel (hydroxypropylcellulose) (HPC) 95 % of control

CCCCC(C)C1(CC)C(=O)NC(=O)NC1=O (stereo not given)
inactive: [1] 95 % of control

CNc1nc(Cl)cc2nc(Cl)cn12
inactive: [7] 94 % of control | [8] 96 % of control | [9] 96 % of control

FC(F)(F)c1ccc2nc(CI)c(CI)nc2c1
inactive: dose: 6.0 mg/kg/injection, schedule: Q01DX009 (ip), vehicle: other 98 % of control | dose: 12.0 mg/kg/injection, schedule: Q01DX009 (ip), vehicle: other 91 % of control | dose: 12.5 mg/kg/injection, schedule: Q01DX009 (ip), vehicle: saline with Tween-80 88 % of control | dose: 25.0 mg/kg/injection, schedule: Q01DX009 (ip), vehicle: other 95 % of control | dose: 25.0 mg/kg/injection, schedule: Q04DX003 (ip), vehicle: other 94 % of control | dose: 50.0 mg/kg/injection, schedule: Q04DX003 (ip), vehicle: other 87 % of control | dose: 100.0 mg/kg/injection, schedule: Q04DX003 (ip), vehicle: other 97 % of control

CCOC1(c2ccccc2)C(c2ccccc2)N1C(=O)c1ccc([N+](=O)[O-])cc1 (stereo not given)
inactive: [5] 92 % of control | [6] 91 % of control | [10] 92 % of control

CC(=O)OCCN1CCC(n2ccc(=O)[nH]c2=O)C1=O (stereo not given)
inactive: [11] 104 % of control | [12] 104 % of control | [13] 106 % of control

Nc1c(S(=O)(=O)O)cc(Br)c2c1C(=O)c1ccccc1C2=O
inactive: [3] 92 % of control | [11] 96 % of control | [4] 95 % of control | [12] 93 % of control | dose: 400.0 mg/kg/injection, schedule: Q01DX009 (ip), vehicle: saline 101 % of control | [13] 95 % of control

S=c1sc2ccccc2n1CN1CCCCC1
inactive: [14] 95 % of control | [5] 92 % of control | [15] 103 % of control | [6] 97 % of control | dose: 400.0 mg/kg/injection, schedule: Q01DX009 (ip), vehicle: Klucel (hydroxypropylcellulose) (HPC) 105 % of control | [10] 96 % of control

CC(C)N(C(=O)COc1ccc(Cl)cc1)c1ccccc1
inactive: dose: 50.0 mg/kg/injection, schedule: Q01DX009 (ip), vehicle: Klucel (hydroxypropylcellulose) (HPC) 103 % of control | [14] 104 % of control | [5] 108 % of control | [15] 92 % of control | [6] 93 % of control

Cc1cc(OC(=O)c2ccc(N)cc2)ccc1C1=NCC(C)S1 (stereo not given)
inactive: dose: 25.0 mg/kg/injection, schedule: Q04DX002 (ip), vehicle: DMSO 89 % of control | dose: 50.0 mg/kg/injection, schedule: Q04DX002 (ip), vehicle: DMSO 92 % of control | dose: 100.0 mg/kg/injection, schedule: Q04DX002 (ip), vehicle: DMSO 100 % of control

OCCc1c[nH]c2ccccc12
inactive: [5] 97 % of control | [6] 94 % of control | [10] 97 % of control

CCC(CC)NCCOC(=O)c1ccc(N)cc1
inactive: [1] 100 % of control | dose: 150.0 mg/kg/injection, schedule: Q01DX001 (ip), vehicle: saline 98 % of control

O=C(Nc1ccccc1)NC(C(=O)O)(c1ccccc1)c1ccccc1
inactive: dose: 50.0 mg/kg/injection, schedule: Q01DX001 (ip), vehicle: other 97 % of control | dose: 100.0 mg/kg/injection, schedule: Q01DX001 (ip), vehicle: other 89 % of control | dose: 200.0 mg/kg/injection, schedule: Q01DX001 (ip), vehicle: other 92 % of control

C/C(=N/N=C(N)N)c1cccnc1
inactive: dose: 15.0 mg/kg/injection, schedule: Q01DX Z (ip), vehicle: saline 106 % of control | dose: 30.0 mg/kg/injection, schedule: Q01DX Z (ip), vehicle: saline 106 % of control | dose: 60.0 mg/kg/injection, schedule: Q01DX Z (ip), vehicle: saline 108 % of control | dose: 120.0 mg/kg/injection, schedule: Q01DX Z (ip), vehicle: saline 93 % of control

CC1(C)COC(C2CC(=O)c3ccccc3C2)=N1 (stereo not given)
inactive: [2] 94 % of control | dose: 50.0 mg/kg/injection, schedule: Q04DX003 (ip), vehicle: saline 97 % of control | dose: 100.0 mg/kg/injection, schedule: Q01DX009 (ip), vehicle: saline with Tween-80 107 % of control | [11] 92 % of control | dose: 200.0 mg/kg/injection, schedule: Q01DX009 (ip), vehicle: saline with Tween-80 100 % of control | [12] 99 % of control | dose: 400.0 mg/kg/injection, schedule: Q01DX009 (ip), vehicle: saline with Tween-80 107 % of control | [13] 91 % of control

CCCCOP(=O)(OCCCC)[O][Pb]([CH2]C)([CH2]C)[CH2]C
inactive: dose: 3.13 mg/kg/injection, schedule: Q01DX009 (ip), vehicle: saline with Tween-80 101 % of control | dose: 6.25 mg/kg/injection, schedule: Q01DX009 (ip), vehicle: saline with Tween-80 91 % of control

O=C(Nc1cccc2cnccc12)c1ccc(C(=O)Nc2cccc3cnccc23)cc1
inactive: [7] 98 % of control | [8] 104 % of control | [9] 104 % of control
